The values below come from patent EP2057188B1 (priority 2006, dated 2008).

Ends that are not written are not given here.

The first test is classed as in vivo, NIH/Swiss mice. The settings on record: 80 nmol/Kg; AUC240.
Protocol: Gavage (1.5g/kg) was given at t=0. Sample was taken at t=30 min.
As for `CC[C@H](C)[C@H](NC(=O)[C@H](CO)NC(=O)[C@H](Cc1ccc(O)cc1)NC(=O)[C@H](CC(=O)O)NC(=O)[C@H](CO)NC(=O)[C@@H](NC(=O)[C@H](Cc1ccccc1)NC(=O)[C@@H](NC(=O)CNC(=O)[C@H](CCC(=O)O)NC(=O)[C@@H](C)NC(=O)[C@@H](N)Cc1ccc(O)cc1)[C@@H](C)O)[C@@H](C)CC)C(=O)N[C@@H](C)C(=O)N[C@@H](CCSC)C(=O)N[C@@H](CC(=O)O)C(=O)N[C@@H](CCCCN)C(=O)N[C@H](C(=O)N[C@@H](Cc1c[nH]cn1)C(=O)N[C@@H](CCC(N)=O)C(=O)N[C@@H](CCC(N)=O)C(=O)N[C@@H](CC(=O)O)C(=O)N[C@@H](Cc1ccccc1)C(=O)N[C@H](C(=O)N[C@@H](CC(N)=O)C(=O)N[C@@H](Cc1c[nH]c2ccccc12)C(=O)N[C@@H](CC(C)C)C(=O)N[C@@H](CC(C)C)C(=O)N[C@@H](C)C(=O)N[C@@H](CCC(N)=O)C(=O)N[C@@H](CCCCN)C(=O)N[C@H](C(=O)N[C@@H](CO)C(=O)N1CCC[C@H]1C(=O)N[C@@H](CCCNC(=N)N)C(=O)N1CCC[C@H]1C(=O)N1CCC[C@H]1C(=O)N[C@@H](CO)C(N)=O)[C@@H](C)O)C(C)C)[C@@H](C)CC` [Compound 0601GIP4236], the “Basal Glucose Lowering at 80 nmol/Kg” value is recorded as -12%,.

In the case of `CC[C@H](C)[C@H](NC(=O)[C@H](CO)NC(=O)[C@H](Cc1ccc(O)cc1)NC(=O)[C@H](CC(=O)O)NC(=O)[C@H](CO)NC(=O)[C@@H](NC(=O)[C@H](Cc1ccccc1)NC(=O)[C@@H](NC(=O)CNC(=O)[C@H](CCC(=O)O)NC(=O)[C@@H](C)NC(=O)[C@@H](N)Cc1ccc(O)cc1)[C@@H](C)O)[C@@H](C)CC)C(=O)N[C@@H](C)C(=O)N[C@@H](CCSC)C(=O)N[C@@H](CC(=O)O)C(=O)N[C@@H](CCCCN)C(=O)N[C@H](C(=O)N[C@@H](Cc1c[nH]cn1)C(=O)N[C@@H](CCC(N)=O)C(=O)N[C@@H](CCC(N)=O)C(=O)N[C@@H](CC(=O)O)C(=O)N[C@@H](Cc1ccccc1)C(=O)N[C@H](C(=O)N[C@@H](CC(N)=O)C(=O)N[C@@H](Cc1c[nH]c2ccccc12)C(=O)N[C@@H](CC(C)C)C(=O)N[C@@H](CC(C)C)C(=O)N[C@@H](C)C(=O)N[C@@H](CCC(N)=O)C(=O)N[C@@H](CCCCN)C(=O)N1CCC[C@H]1C(=O)N[C@@H](CO)C(=O)N[C@@H](CO)C(=O)NCC(=O)N[C@@H](C)C(=O)N1CCC[C@H]1C(=O)NCC(=O)N1CCC[C@H]1C(=O)N[C@@H](CO)C(N)=O)C(C)C)[C@@H](C)CC` [0601 GIP49 52], the “Basal Glucose Lowering at 80 nmol/Kg” value is -1, AUC2 40%.

With `CC[C@H](C)[C@H](NC(=O)[C@H](CO)NC(=O)[C@H](Cc1ccc(O)cc1)NC(=O)[C@H](CC(=O)O)NC(=O)[C@H](CO)NC(=O)[C@@H](NC(=O)[C@H](Cc1ccccc1)NC(=O)[C@@H](NC(=O)CNC(=O)[C@H](CCC(=O)O)NC(=O)[C@@H](C)NC(=O)[C@@H](N)Cc1ccc(O)cc1)[C@@H](C)O)[C@@H](C)CC)C(=O)N[C@@H](C)C(=O)N[C@@H](CC(C)C)C(=O)N[C@@H](CC(=O)O)C(=O)N[C@@H](CCCCN)C(=O)N[C@H](C(=O)N[C@@H](CCCNC(=N)N)C(=O)N[C@@H](CCC(N)=O)C(=O)N[C@@H](CCC(N)=O)C(=O)N[C@@H](CCC(=O)O)C(=O)N[C@@H](Cc1ccccc1)C(=O)N[C@H](C(=O)N[C@@H](CC(N)=O)C(=O)N[C@@H](Cc1c[nH]c2ccccc12)C(=O)N[C@@H](CC(C)C)C(=O)N[C@@H](CC(C)C)C(=O)N[C@@H](C)C(=O)N[C@@H](CCC(N)=O)C(=O)N[C@@H](CCCCN)C(=O)N1CCC[C@H]1C(=O)N[C@@H](CCCCN)C(=O)N[C@@H](CCCCN)C(=O)N[C@H](C(=O)N[C@@H](CCCNC(=N)N)C(=O)N[C@@H](Cc1ccc(O)cc1)C(=O)N[C@@H](CO)C(N)=O)[C@@H](C)CC)C(C)C)[C@@H](C)CC` [0601GIP4539], the “Basal Glucose Lowering at 80 nmol/Kg” value is -5%, AUC240.

For `CC[C@H](C)[C@H](NC(=O)[C@H](CO)NC(=O)[C@H](Cc1ccc(O)cc1)NC(=O)[C@H](CC(=O)O)NC(=O)[C@H](CO)NC(=O)[C@@H](NC(=O)[C@H](Cc1ccccc1)NC(=O)[C@@H](NC(=O)CNC(=O)[C@H](CCC(=O)O)NC(=O)[C@@H](C)NC(=O)[C@@H](N)Cc1ccc(O)cc1)[C@@H](C)O)[C@@H](C)CC)C(=O)N[C@@H](C)C(=O)N[C@@H](CCSC)C(=O)N[C@@H](CC(=O)O)C(=O)N[C@@H](CCCCN)C(=O)N[C@H](C(=O)N[C@@H](Cc1c[nH]cn1)C(=O)N[C@@H](CCC(N)=O)C(=O)N[C@@H](CCC(N)=O)C(=O)N[C@@H](CC(=O)O)C(=O)N[C@@H](Cc1ccccc1)C(=O)N[C@H](C(=O)N[C@@H](CC(N)=O)C(=O)N[C@@H](Cc1c[nH]c2ccccc12)C(=O)N[C@@H](CC(C)C)C(=O)N[C@@H](CC(C)C)C(=O)N[C@@H](C)C(=O)N[C@@H](CCC(N)=O)C(=O)N[C@@H](CCCCN)C(=O)NCCC(=O)NCCC(=O)N1CCC[C@H]1C(=O)N[C@@H](CCCCN)C(=O)N[C@@H](CCCCN)C(=O)N[C@H](C(=O)N[C@@H](CCCNC(=N)N)C(=O)N[C@@H](Cc1ccc(O)cc1)C(=O)N[C@@H](CO)C(N)=O)[C@@H](C)CC)C(C)C)[C@@H](C)CC` [0601GIP4648], the “Basal Glucose Lowering at 80 nmol/Kg” value is -8%, AUC240.

Regarding `CC[C@H](C)[C@H](NC(=O)[C@H](CO)NC(=O)[C@H](Cc1ccc(O)cc1)NC(=O)[C@H](CC(=O)O)NC(=O)[C@H](CO)NC(=O)[C@@H](NC(=O)[C@H](Cc1ccccc1)NC(=O)[C@@H](NC(=O)CNC(=O)[C@H](CCC(=O)O)NC(=O)[C@@H](C)NC(=O)[C@@H](N)Cc1ccc(O)cc1)[C@@H](C)O)[C@@H](C)CC)C(=O)N[C@@H](C)C(=O)N[C@@H](CCSC)C(=O)N[C@@H](CC(=O)O)C(=O)N[C@@H](CCCCN)C(=O)N[C@H](C(=O)N[C@@H](Cc1c[nH]cn1)C(=O)N[C@@H](CCC(N)=O)C(=O)N[C@@H](CCC(N)=O)C(=O)N[C@@H](CC(=O)O)C(=O)N[C@@H](Cc1ccccc1)C(=O)N[C@H](C(=O)N[C@@H](CC(N)=O)C(=O)N[C@@H](Cc1c[nH]c2ccccc12)C(=O)N[C@@H](CC(C)C)C(=O)N[C@@H](CC(C)C)C(=O)N[C@@H](C)C(=O)N[C@@H](CCC(N)=O)C(=O)N[C@@H](CCCCN)C(=O)N1CCC[C@H]1C(=O)N[C@@H](CO)C(=O)N[C@@H](CCCCN)C(=O)N[C@@H](CCC(=O)O)C(=O)N[C@H](C(=O)N[C@H](C(=O)N[C@@H](CO)C(N)=O)[C@@H](C)CC)[C@@H](C)CC)C(C)C)[C@@H](C)CC` [Compound 0601GIP4234], the “Basal Glucose Lowering at 80 nmol/Kg” value is given as -11%, AUC240.

In the case of `CC[C@H](C)[C@H](NC(=O)[C@H](CO)NC(=O)[C@H](Cc1ccc(O)cc1)NC(=O)[C@H](CC(=O)O)NC(=O)[C@H](CO)NC(=O)[C@@H](NC(=O)[C@H](Cc1ccccc1)NC(=O)[C@@H](NC(=O)CNC(=O)[C@H](CCC(=O)O)NC(=O)[C@@H](C)NC(=O)[C@@H](N)Cc1ccc(O)cc1)[C@@H](C)O)[C@@H](C)CC)C(=O)N[C@@H](C)C(=O)N[C@@H](CCSC)C(=O)N[C@@H](CC(=O)O)C(=O)N[C@@H](CCCCN)C(=O)N[C@H](C(=O)N[C@@H](Cc1c[nH]cn1)C(=O)N[C@@H](CCC(N)=O)C(=O)N[C@@H](CCC(N)=O)C(=O)N[C@@H](CC(=O)O)C(=O)N[C@@H](Cc1ccccc1)C(=O)N[C@H](C(=O)N[C@@H](CC(N)=O)C(=O)N[C@@H](Cc1c[nH]c2ccccc12)C(=O)N[C@@H](CC(C)C)C(=O)N[C@@H](CC(C)C)C(=O)N[C@@H](C)C(=O)N[C@@H](CCC(N)=O)C(=O)N[C@@H](CCCCN)C(=O)N1CCC[C@H]1C(=O)N[C@@H](CCCCN)C(=O)NCC(=O)N[C@@H](CCCCN)C(=O)NCC(=O)N[C@@H](CCCCN)C(=O)N[C@@H](CO)C(N)=O)C(C)C)[C@@H](C)CC` [0601GIP4700], the “Basal Glucose Lowering at 80 nmol/Kg” value was -6%, AUC240.

In the case of `CC[C@H](C)[C@H](NC(=O)[C@H](CO)NC(=O)[C@H](Cc1ccc(O)cc1)NC(=O)[C@H](CC(=O)O)NC(=O)[C@H](CO)NC(=O)[C@@H](NC(=O)[C@H](Cc1ccccc1)NC(=O)[C@@H](NC(=O)CNC(=O)[C@H](CCC(=O)O)NC(=O)[C@@H](C)NC(=O)[C@@H](N)Cc1ccc(O)cc1)[C@@H](C)O)[C@@H](C)CC)C(=O)N[C@@H](C)C(=O)N[C@@H](CCSC)C(=O)N[C@@H](CC(=O)O)C(=O)N[C@@H](CCCCN)C(=O)N[C@H](C(=O)N[C@@H](Cc1c[nH]cn1)C(=O)N[C@@H](CCC(N)=O)C(=O)N[C@@H](CCC(N)=O)C(=O)N[C@@H](CC(=O)O)C(=O)N[C@@H](Cc1ccccc1)C(=O)N[C@H](C(=O)N[C@@H](CCC(N)=O)C(=O)N[C@@H](Cc1c[nH]c2ccccc12)C(=O)N[C@@H](CC(C)C)C(=O)N[C@@H](CC(C)C)C(=O)N[C@@H](C)C(=O)N[C@@H](CCC(N)=O)C(=O)N[C@@H](CCCCN)C(=O)N1CCC[C@H]1C(=O)N[C@@H](CO)C(=O)N[C@@H](CO)C(=O)NCC(=O)N[C@@H](C)C(=O)N1CCC[C@H]1C(=O)N1CCC[C@H]1C(=O)N1CCC[C@H]1C(=O)N[C@@H](CO)C(N)=O)C(C)C)[C@@H](C)CC` [0601 GIP48 46], the “Basal Glucose Lowering at 80 nmol/Kg” value is -6%, AUC2 40.

For another test the following is noted: at doses of 100µg; cited from earlier work.
Turning to “somatostatin: peptide compared for inhibition of gastric emptying in conscious rats (AGCKNFFWKTFTSC; ends and bridges not checked; cysteine pairing not given here; UniProt P61278 103-116, looked up)”, the “inhibition of gastric emptying” value was “weakly active or inactive”.

In the case of “glucagon: peptide compared for inhibition of gastric emptying in conscious rats”, the “inhibition of gastric emptying” value is “weakly active or inactive”.

Consider “neuropeptide Y: peptide compared for inhibition of gastric emptying in conscious rats”, for which the “inhibition of gastric emptying” value was “weakly active or inactive”.

For the molecule “vasoactive intestinal peptide: peptide compared for inhibition of gastric emptying in conscious rats (HSDAVFTDNYTRLRKQMAVKKYLNSILN; ends and bridges not checked; UniProt P01282 125-152, looked up)”, the “inhibition of gastric emptying” value was “weakly active or inactive”.

The test is the same for the next values; noted with them: inhibition of gastric emptying, subcutaneous, conscious rats ~200g; cited from earlier work.
In the case of “Rat calcitonin: peptide compared for inhibition of gastric emptying in conscious rats (CGNLSTCMLGTYTQDLNKFHTFPQTSIGVGAP; ends and bridges not checked; cysteine pairing not given here; UniProt P01257 85-116, looked up)”, the “EC(50)” value is 0.64 µg.

The test is the same for the next values; noted with them: inhibition of gastric emptying, subcutaneous, conscious rats; cited from earlier work.
For the molecule “Rat calcitonin: peptide compared for inhibition of gastric emptying in conscious rats (CGNLSTCMLGTYTQDLNKFHTFPQTSIGVGAP; ends and bridges not checked; cysteine pairing not given here; UniProt P01257 85-116, looked up)”, the “EC(50)” value is 0.94 nmol/kg.
